# Where a name gives a salt, the structure may show the parent alone.
# What was measured:
# [1] = Polymorphic stability on exposure to ethanol or methanol vapors; type: physicochemical; settings: exposed to ethanol or methanol vapors, about RT, about 1 hour to about 24 hours
# Excerpt: As discussed above, Nilotinib HBr form XI has advantageous properties. In particular, the crystalline Nilotinib HBr form XI of the present invention is polymorphically stable. […] This stability is an advantage for the production, storage and processing of pharmaceuticals comprising Nilotinib HBr.
# [2] = Thermal polymorphic stability (heating of the crystalline form); type: physicochemical; settings: heated up to 200° C.
# Excerpt: As discussed above, Nilotinib L-tartrate Form IV has advantageous properties.
Compound,polymorphic stability (conversion to other forms of Nilotinib HBr) [1],thermal polymorphic stability (conversion to other forms) [2]
"Cc1cn(-c2cc(NC(=O)c3ccc(C)c(Nc4nccc(-c5cccnc5)n4)c3)cc(C(F)(F)F)c2)cn1 [Nilotinib HBr form XI, Nilotinib hydrobromide]",does not convert to other forms of Nilotinib HBr,
Nilotinib L-tartrate [Nilotinib L-tartrate Form IV],,does not convert to other forms
